According to PMC8688847, “Implications of Membrane Binding by the Fe-S Cluster-Containing N-Terminal Domain in the Drosophila Mitochondrial Replicative DNA Helicase” (Frontiers in Genetics, 2021):

Key:
ΔN-helicase (P66) = biological target: T1, ΔN-helicase (P66) (Homo sapiens, UniProt Q96RR1); assay: malachite green ATPase assay; format: biochemical; details: 8 mM Mg acetate, pH 7.5, room temperature
T1 construct: gene TWNK; variant lacking the N-terminus, termed P66 in Ziebarth et al. 2007
T1 sequence (Q96RR1 85-684 limits assumed): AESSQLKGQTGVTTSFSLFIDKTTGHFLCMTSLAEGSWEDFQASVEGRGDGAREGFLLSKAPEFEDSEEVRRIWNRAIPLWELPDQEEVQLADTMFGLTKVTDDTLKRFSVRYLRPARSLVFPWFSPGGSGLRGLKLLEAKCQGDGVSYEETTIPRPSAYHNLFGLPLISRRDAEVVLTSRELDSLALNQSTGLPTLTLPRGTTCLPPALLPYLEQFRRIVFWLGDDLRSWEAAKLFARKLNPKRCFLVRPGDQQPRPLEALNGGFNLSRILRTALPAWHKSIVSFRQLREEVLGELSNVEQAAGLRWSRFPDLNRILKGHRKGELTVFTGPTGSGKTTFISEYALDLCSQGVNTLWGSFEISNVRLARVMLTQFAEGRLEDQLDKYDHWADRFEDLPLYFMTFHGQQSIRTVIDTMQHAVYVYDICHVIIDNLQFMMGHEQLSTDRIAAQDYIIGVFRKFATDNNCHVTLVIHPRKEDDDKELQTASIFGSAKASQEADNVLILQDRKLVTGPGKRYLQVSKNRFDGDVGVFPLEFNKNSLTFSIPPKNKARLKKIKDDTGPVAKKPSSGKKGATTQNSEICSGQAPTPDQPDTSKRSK

[1] = biological target: T2, FL Hs mtDNA helicase (TWINKLE) (Homo sapiens, UniProt Q96RR1); assay: malachite green ATPase assay; format: biochemical; details: 8 mM Mg acetate, pH 7.5, room temperature
T2 construct: gene TWNK; full-length, recombinant, Ni-NTA purified
T2 sequence (Q96RR1 32-684): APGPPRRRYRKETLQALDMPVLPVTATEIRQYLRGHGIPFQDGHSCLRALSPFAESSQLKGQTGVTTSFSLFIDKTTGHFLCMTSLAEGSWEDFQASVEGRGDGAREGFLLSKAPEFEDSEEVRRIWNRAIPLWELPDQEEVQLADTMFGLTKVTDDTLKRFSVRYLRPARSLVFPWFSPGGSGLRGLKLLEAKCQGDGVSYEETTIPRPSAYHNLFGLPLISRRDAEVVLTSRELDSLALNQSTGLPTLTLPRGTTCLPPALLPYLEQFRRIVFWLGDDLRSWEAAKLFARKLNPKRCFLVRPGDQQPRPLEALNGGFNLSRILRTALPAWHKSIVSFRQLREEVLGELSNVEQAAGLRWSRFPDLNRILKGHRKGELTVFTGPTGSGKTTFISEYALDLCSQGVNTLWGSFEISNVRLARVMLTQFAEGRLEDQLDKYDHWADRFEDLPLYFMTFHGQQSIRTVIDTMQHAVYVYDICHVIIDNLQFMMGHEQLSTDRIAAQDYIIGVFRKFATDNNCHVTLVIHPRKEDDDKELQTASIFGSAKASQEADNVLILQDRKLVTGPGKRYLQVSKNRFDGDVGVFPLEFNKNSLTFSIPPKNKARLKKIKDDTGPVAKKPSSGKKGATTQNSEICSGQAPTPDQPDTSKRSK

## Nc1ncnc2c1ncn2[C@@H]1O[C@H](COP(=O)(O)OP(=O)(O)OP(=O)(O)O)[C@@H](O)[C@H]1O [ATP]
ΔN-helicase (P66)
  malachite green ATPase assay: the ATPase activity of ΔN-helicase, termed P66
[1]
  malachite green ATPase assay: ATP hydrolysis of FL helicase was increased with added calf thymus DNA
